Results on 3 compounds are retold here after ChEMBL document CHEMBL5584244, “Discovery of novel pyrrolo[2,1-c][1,4]benzodiazepine-3,11-dione (PBD) derivatives as selective HDAC6 inhibitors for the efficient treatment of idiopathic pulmonary fibrosis (IPF) in vitro and in vivo” (Eur J Med Chem, 2024).

In data set [1] the test system is Mus musculus. Description: Anti-pulmonary fibrosis activity in bleomycin-induced C57BL/6 mouse model of pulmonary fibrosis assessed as decrease structural damage in lung at 100 mg/kg, ip for 3 weeks by H and E staining based fluorescence microscopic analysis. Type of data set: functional, organism-based.
In data set [2] the test system is Mus musculus. The experiment in a line: Anti-pulmonary fibrosis activity in bleomycin-induced C57BL/6 mouse model of pulmonary fibrosis assessed as decrease in inflammatory cell infiltration in lung at 100 mg/kg, ip for 3 weeks by H and E staining based fluorescence microscopic analysis. The format is functional, organism-based.
In data set [3] the test system is Mus musculus. Description: Anti-pulmonary fibrosis activity in bleomycin-induced C57BL/6 mouse model of pulmonary fibrosis assessed as decrease in fibrosis scars in lung at 100 mg/kg, ip for 3 weeks by H and E staining based fluorescence microscopic analysis. Type of data set: functional, organism-based.
The test system of data set [4] is Mus musculus. Description: Anti-pulmonary fibrosis activity in bleomycin-induced C57BL/6 mouse model of pulmonary fibrosis assessed as decrease in thickening of the alveolar wall in lung at 100 mg/kg, ip for 3 weeks by Masson trichrome staining based microscopic analysis. Type of data set: functional, organism-based.
Data set [5] deals with Mus musculus. The experiment in a line: Anti-pulmonary fibrosis activity in bleomycin-induced C57BL/6 mouse model of pulmonary fibrosis assessed as decrease in disturbance of alveolar structure in lung at 100 mg/kg, ip for 3 weeks by H and E staining based fluorescence microscopic analysis. The format is functional, organism-based.
In data set [6] the test system is Mus musculus. The experiment in a line: Anti-pulmonary fibrosis activity in bleomycin-induced C57BL/6 mouse model of pulmonary fibrosis assessed as decrease in collapse of the alveolar cavity in lung at 100 mg/kg, ip for 3 weeks by Masson trichrome staining based microscopic analysis. Type of data set: functional, organism-based.
Data set [7] concerns Mus musculus. Description: Anti-pulmonary fibrosis activity in bleomycin-induced C57BL/6 mouse model of pulmonary fibrosis assessed as decrease in collagen level in lung at 100 mg/kg, ip for 3 weeks by Masson trichrome staining based microscopic analysis. The format is functional, organism-based.
Data set [8] deals with Mus musculus. The experiment in a line: Anti-pulmonary fibrosis activity in bleomycin-induced C57BL/6 mouse model of pulmonary fibrosis assessed as decrease in structural damage in lung at 100 mg/kg, ip for 3 weeks by Masson trichrome staining based microscopic analysis. Type of data set: functional, organism-based.
For data set [9], the system named is Mus musculus. The experiment in a line: Anti-pulmonary fibrosis activity in bleomycin-induced C57BL/6 mouse model of pulmonary fibrosis assessed as decrease in collapse of the alveolar cavity in lung at 100 mg/kg, ip for 3 weeks by H and E staining based fluorescence microscopic analysis. The format is functional, organism-based.
For data set [10], the system named is Mus musculus. Description: Anti-pulmonary fibrosis activity in bleomycin-induced C57BL/6 mouse model of pulmonary fibrosis assessed as decrease in thickening of the alveolar wall in lung at 100 mg/kg, ip for 3 weeks by H and E staining based fluorescence microscopic analysis. Type of data set: functional, organism-based.
The test system of data set [11] is Mus musculus. The experiment in a line: Anti-pulmonary fibrosis activity in bleomycin-induced C57BL/6 mouse model of pulmonary fibrosis assessed as increase in body weight at 100 mg/kg, ip for 3 weeks. The format is functional, organism-based.
Data set [12] in a line: Cytotoxicity against HELF cells assessed as reduction in viability at 1 to 300 uM after 48 hrs under without FBS condition by MTT assay. Type of data set: toxicity, cell-based. Particulars: human, dose 1-300 µM. In general terms: Tetrazolium assays rely on reduction of a dye to a coloured formazan, in cell work by metabolically active cells.
The nature of data set [13]: Cytotoxicity against HELF cells assessed as reduction in viability at 10 uM after 48 hrs by MTT assay. The format is toxicity, cell-based. Particulars: human.
Data set [14] concerns HELF. The experiment in a line: Antifibrotic activity against TGF-beta1-induced HELF cells assessed as reduction in viability at 10 uM after 48 hrs by MTT assay. The format is functional, cell-based. Particulars: Homo sapiens.
Data set [15] deals with T1, Protein deacetylase HDAC6 (Homo sapiens, UniProt Q9UBN7).
T1 sequence (Q9UBN7 whole entry): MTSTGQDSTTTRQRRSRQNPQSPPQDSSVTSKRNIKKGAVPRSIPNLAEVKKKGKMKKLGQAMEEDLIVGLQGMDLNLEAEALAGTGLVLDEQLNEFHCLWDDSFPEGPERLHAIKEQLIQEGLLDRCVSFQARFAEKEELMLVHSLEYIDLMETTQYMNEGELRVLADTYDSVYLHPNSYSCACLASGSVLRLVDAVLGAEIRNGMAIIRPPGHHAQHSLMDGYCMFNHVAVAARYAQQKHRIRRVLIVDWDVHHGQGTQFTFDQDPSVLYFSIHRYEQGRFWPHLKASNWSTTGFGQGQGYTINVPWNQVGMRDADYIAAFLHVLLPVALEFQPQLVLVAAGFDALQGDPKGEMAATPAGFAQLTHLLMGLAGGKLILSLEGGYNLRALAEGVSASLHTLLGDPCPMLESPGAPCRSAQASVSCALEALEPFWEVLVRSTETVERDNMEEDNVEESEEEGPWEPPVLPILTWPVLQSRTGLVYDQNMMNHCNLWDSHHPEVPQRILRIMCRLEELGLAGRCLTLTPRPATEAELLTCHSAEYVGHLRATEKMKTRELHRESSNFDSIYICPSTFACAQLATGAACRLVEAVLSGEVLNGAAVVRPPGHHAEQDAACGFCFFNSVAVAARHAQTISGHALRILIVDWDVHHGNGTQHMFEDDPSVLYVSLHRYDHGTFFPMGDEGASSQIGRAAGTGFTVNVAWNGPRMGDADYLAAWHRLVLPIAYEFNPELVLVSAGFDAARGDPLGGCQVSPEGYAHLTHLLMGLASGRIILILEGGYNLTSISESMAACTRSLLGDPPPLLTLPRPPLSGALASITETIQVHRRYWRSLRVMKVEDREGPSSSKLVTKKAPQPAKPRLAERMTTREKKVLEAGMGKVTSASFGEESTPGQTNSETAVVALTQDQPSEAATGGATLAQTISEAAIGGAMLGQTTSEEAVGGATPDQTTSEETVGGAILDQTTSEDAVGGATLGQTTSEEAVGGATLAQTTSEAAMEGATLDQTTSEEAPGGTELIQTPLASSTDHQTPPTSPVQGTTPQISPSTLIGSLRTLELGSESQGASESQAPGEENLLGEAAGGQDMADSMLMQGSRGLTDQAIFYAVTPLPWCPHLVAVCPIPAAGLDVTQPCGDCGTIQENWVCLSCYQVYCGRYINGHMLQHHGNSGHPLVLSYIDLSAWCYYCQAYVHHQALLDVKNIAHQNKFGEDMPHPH
The experiment in a line: Inhibition of recombinant human full length HDAC6 using Boc-Lys (Ac)-AMC as substrate incubated for 120 mins by fluorescence analysis.

The species entered for data set [16] is Homo sapiens. Description: Selectivity index, ratio IC50 inhibition of human HDAC1 to IC50 for inhibition of human HDAC6 using Ac-Lys (Ac)-AMC as substrate.
Data set [17] has as its target T1, Protein deacetylase HDAC6. The experiment in a line: Inhibition of human HDAC6 using Ac-Lys (Ac)-AMC as substrate incubated for 120 mins by fluorescence analysis.
The target in data set [18] is Histone deacetylase 1 (Homo sapiens, UniProt Q13547). The experiment in a line: Inhibition of human HDAC1 incubated for 10 mins and measured after 30 mins by ELISA. Background: In an ELISA, binding on a coated surface is turned into a signal by an enzyme label.

Calls of active or inactive are those of the source. No cut-off for these calls is given here.

Histone deacetylase 1, sequence (Q13547 whole entry): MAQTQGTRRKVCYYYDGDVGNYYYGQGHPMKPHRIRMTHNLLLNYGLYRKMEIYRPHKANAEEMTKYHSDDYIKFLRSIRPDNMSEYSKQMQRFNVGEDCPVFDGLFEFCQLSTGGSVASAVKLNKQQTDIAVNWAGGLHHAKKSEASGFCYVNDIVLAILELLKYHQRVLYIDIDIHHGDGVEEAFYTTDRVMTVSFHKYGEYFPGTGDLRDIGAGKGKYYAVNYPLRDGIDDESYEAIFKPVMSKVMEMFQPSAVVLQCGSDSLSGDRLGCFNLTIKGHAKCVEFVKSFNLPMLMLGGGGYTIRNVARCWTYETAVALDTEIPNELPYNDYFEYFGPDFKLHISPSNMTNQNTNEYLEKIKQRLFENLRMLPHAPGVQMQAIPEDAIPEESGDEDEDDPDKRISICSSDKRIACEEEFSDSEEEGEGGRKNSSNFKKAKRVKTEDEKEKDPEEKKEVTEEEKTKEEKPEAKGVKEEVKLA

Turning to `Cc1ccc(=O)n(-c2ccccc2)c1`, the result in data set [1], in data set [2], in data set [3], in data set [5], in data set [7] and in data set [9] was Active. For the same compound, the result in data set [10] and in [11] was Active. The result in data set [4], in [6] and in data set [8] was inactive.

Turning to `CN1CCc2c(c3ccccc3n2Cc2ccc(C(=O)NO)cc2)C1` [TUBASTATIN A], the results for the Activity entry in data set [12] and in data set [13] were “Toxic” and “Non-Toxic”, respectively. In addition, the result in [14] was Active.

Regarding `O=C(CCCCCCCN1C(=O)[C@@H]2CCC(=O)N2Cc2ccccc21)NO`, the IC50 (commonly the concentration at which inhibition is half-maximal) in [15] is 0.0125 µM; in data set [17], 0.0214 µM; in [18] it was 0.789 µM. In data set [16], the Ratio IC50 came out at 36.8.
